Experimental findings from patent US8404265B2, “Contact lenses for extended release of bioactive agents containing diffusion attenuators” (University of Florida Research Foundation, Inc., priority 2008, dated 2013) are described below.

What all share (assay type): physicochemical
One data set is described as follows: Solubility of DX. On the procedure:
For various drug loading methods, the mass of drug released at various time increments was divided by the total drug released at long time and plotted as a function of time. […] A DX-ethanol solution of equivalent concentration as the DX-PBS, 0.08 mg/ml as that of DX-PBS solution was used to allow direct comparison of the two loading modes, although a saturated DX in ethanol is about 1 mg/ml. […] For these lenses, there is not much difference in the total release amount of DX from the lenses soaked in DX-PBS solution for two different soaking times, but slower DX release is observed from lenses that were soaked for 7 days than that for 24 hours. […] For total release amount of DX, PureVision™ and ACUVUE® OASYS™ lenses release relatively smaller amounts (about 28 μg and 35 μg, respectively) compared to the other three lenses (about 38-41 μg). There is no correlation between amount of drugs released and the water content, which is likely because the hydrophobic drugs are expected to partition in the silicone rich phases, and so the partition coefficients in the gels will be mainly influenced by the silicone composition of the lenses. All the lenses soaked in DX-ethanol solution release substantially low amount of DX (2-8 μg). […]

Data set [1] is described as follows: Diffusivity ratio from slope of % release versus square root of time. Particulars: pure lenses. The text has this:
FIG. 31 plots % drugs release by Vitamin E loaded lenses as a function of the square root of time, for DX, timolol, fluzonazole and DXP. The lines of FIG. 31 are best fit straight lines over short time release data having R^2 larger than 0.98. […] The straight lines can be expressed by the equation:
[formula] where Mt is the mass of drug released at time t, M∞ the mass of drug release as time approaches infinity and for perfect sink condition M∞=M0 (initial drug loading). Therefore, from the slope of the straight line in FIG. 31, diffusivities of drug in the Vitamin E loaded lens can be determined if the mean lens thickness is known. The slope for DX, timolol, fluzonazole and DXP release is plotted versus Vitamin E loading in FIG. 32A-D. The slope decreases as Vitamin E loading increases for all lenses for all drugs release, which means (√{square root over (D)}/h) decreases. […] The h also increases as Vitamin E loading increases and lens expands symmetrically for all expansion axes (isotropic expansion) as described above. The increase of h might be 6.8% for hydrated O2OPTIX lens with 34% Vitamin E loading from FIG. 5B. Consequently, √{square root over (D)} is 39.5% of that of pure lens, i.e., D of DX in the 34% Vitamin E loaded O2OPTIX lens is 15% of that of the vitamin free (pure) lens. […]

Data set [2] can be described thus: DX uptake, release and partition coefficient, Vitamin E loaded lenses. Particulars: release from Vitamin E loaded lenses. On the procedure: Drug containing Vitamin E loaded lenses were prepared by directly adding drug to a Vitamin E-ethanol solution before soaking the pure lens in the solution, or by soaking a Vitamin E loaded lens in a drug-PBS solution. Drug containing Vitamin E-ethanol solutions were prepared by dissolving the drug in 3 ml of a Vitamin E-ethanol solution and then pure lens were soaked in this drug/Vitamin E-ethanol for 24 hours. The drug containing Vitamin E-ethanol lenses were taken from the solution blotted with wipes and dried overnight before subsequent release experiments.
For PureVision™ lens loaded with Vitamin E, only three different Vitamin E loadings were examined since the effect of Vitamin E loading on drug transport is minimal compared to other lenses. The insets in FIG. 21 show plots for drug release for the initial hours. Vitamin E was loaded in the lens, the lens were dried and DX was loaded in the Vitamin E loaded lens by soaking the lens in the DX-PBS solutions. […] DX loading time is relatively long for ACUVUE® OASYS™ lenses and relatively short for PureVision™ lenses relative to that of NIGHT&DAY™ and O2OPTIX lenses for similar Vitamin E loadings regardless of the level of Vitamin E loading.
For loading, an experimentally determined partition coefficient of drug in the Vitamin E loaded lens (K) is defined as: […]

As for `C[C@@H]1C[C@H]2[C@@H]3CCC4=CC(=O)C=C[C@]4(C)[C@@]3(F)[C@@H](O)C[C@]2(C)[C@@]1(O)C(=O)CO` [DX, dexamethasone], the “concentration of nearly saturated DX-PBS solution” value in “Solubility of DX” (PBS, room temperature) was about 80 µg/mL. Further, the “saturated DX in ethanol” value in “Solubility of DX” (ethanol) is reported as “about 1 mg/ml”.
Regarding `CC(C)(C)NC[C@H](O)COc1nsnc1N1CCOCC1` [timolol], the “D0 of timolol relative to D0 of DX” value in data set [1] is reported as “about 3 factor”.
In the case of Vitamin E, the “Vitamin E in the release medium, PBS” value in data set [2] is listed as “not detected”.
